Columns and labels:
PAD1 [1] = target: T1, PAD1 (Homo sapiens, UniProt Q9ULC6); assay: Limit of detection for in vitro labelling of recombinant PAD1 by probe; type: binding; conditions: 10 μM probe, conjugated with TAMRA-N3 using CuAAC
T1 construct: made in house
T1 sequence (Q9ULC6 1-663): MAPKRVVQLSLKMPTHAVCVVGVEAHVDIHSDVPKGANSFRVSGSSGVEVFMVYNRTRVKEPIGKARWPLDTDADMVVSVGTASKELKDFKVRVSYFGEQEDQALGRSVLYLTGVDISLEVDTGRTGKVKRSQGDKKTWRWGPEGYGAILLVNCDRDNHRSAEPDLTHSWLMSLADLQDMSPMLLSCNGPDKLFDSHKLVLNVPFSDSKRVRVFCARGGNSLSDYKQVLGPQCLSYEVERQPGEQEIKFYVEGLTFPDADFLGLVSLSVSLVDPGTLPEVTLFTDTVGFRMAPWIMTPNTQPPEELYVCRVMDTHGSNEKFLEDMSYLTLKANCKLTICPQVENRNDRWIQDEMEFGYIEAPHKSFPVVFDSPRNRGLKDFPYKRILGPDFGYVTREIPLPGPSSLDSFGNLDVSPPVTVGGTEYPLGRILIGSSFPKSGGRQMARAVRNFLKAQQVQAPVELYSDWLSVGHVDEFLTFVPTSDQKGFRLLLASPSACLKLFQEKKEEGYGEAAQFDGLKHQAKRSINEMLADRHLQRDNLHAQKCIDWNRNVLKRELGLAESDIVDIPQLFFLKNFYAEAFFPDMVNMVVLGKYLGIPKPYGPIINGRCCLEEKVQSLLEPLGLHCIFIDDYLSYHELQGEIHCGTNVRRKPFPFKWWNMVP
Procedure: Dose-dependent in vitro Labelling of Recombinant PADs with 21 and 22. A PAD (1.4 μM) was added to a prewarmed (10 min at 37° C.) reaction mixture (25 mM TRIS pH 7.4, 10 mM NaCl, and 5 mM CaCl2) containing various concentrations of 21 or 22 (or equal volume of DMSO for control). The mixture was incubated at 37° C. for 15 min. Then TAMRA-N3 (50 μM), TCEP (1 mM), TBTA (0.3 mM) and freshly prepared copper (II) sulphate (1 mM) were sequentially added to the reaction mixture and the tubes were gently tumbled at room temperature for 2 h. Then the reactions were quenched with 5×SDS-PAGE loading dye, heated at 95° C. for 15 min and loaded onto 4-15% gradient SDS-PAGE gel. Protein bands were visualized by recording in-gel fluorescence using a typhoon scanner (approximate excitation/emission maxima ˜546/579, respectively). All the experiments were performed at least in duplicate.
Limit of Detection for in vitro Labelling of Recombinant PADs with 21 and 22. Various concentrations of PAD were added to prewarmed (10 min at 37° C.) reaction mixtures (25 mM TRIS pH 7.4, 10 mM NaCl, 5 mM CaCl2) containing 10 μM of 21 or 22. […] Protein bands were visualized by recording in-gel fluorescence using a typhoon scanner (approximate excitation/emission maxima ˜546/579, respectively). […]

PAD1 [2] = target: T1, PAD1; assay: Inhibition of RFA labelling of PAD1 (ABPP assay); type: binding; conditions: PAD1 2 μM, RFA 2 μM, 37° C., 2 h
Source text: The halogen-dependent change in potency of the PAD1 inhibitors was further confirmed using an activity-based protein profiling (ABPP) assay that uses the PAD-targeted probe, rhodamine-conjugated F-amidine (RFA, FIG. 2C).
RFA enables the covalent modification and fluorescent labelling of PADs with the help of its fluoroacetamidine and rhodamine moieties, respectively. However, in the presence of a PAD inhibitor that can compete for binding to the active site, RFA labelling is inhibited. […] Similar results were obtained with the chloroacetamidine-containing compounds 2, 12, 14 and 8 (FIG. 9).
RFA labelling. RFA labelling of PAD1 in the presence of inhibitors followed a protocol similar to that established for PAD2. (Mondal, et al. ACS Chem. Biol. 2018, 13, 1057-1065.) Briefly, PAD1 (2 μM final) was added to prewarmed (10 min at 37° C.) reaction mixture (100 mM TRIS pH 7.4, 50 mM NaCl, 10 mM CaCl2, and 2 mM DTT in a final volume of 30 μL) containing RFA (2 μM final) and DMSO or various concentrations of the inhibitor. […] In-gel fluorescence of the protein bands was recorded using a typhoon scanner (excitation/emission maxima of ˜546/579, respectively) and was quantified using ImageJ software. IC50 values of the inhibitors were obtained by plotting the relative decrease in the fluorescence intensity of protein bands against the concentration of inhibitor. […]

| Compound | limit of detection (LOD) of recombinant PAD1 (PAD1 [1]) [pmol] | IC50 (PAD1 [2]) [µM] |
| --- | --- | --- |
| C#Cc1c(I)cc(C(=O)N[C@@H](CCCNC(=N)CF)c2nc3ccccc3[nH]2)c(O)c1I [Compound 21] | 4.3 |  |
| N=C(CF)NCCC[C@H](NC(=O)c1cc(I)cc(I)c1O)c1nc2ccccc2[nH]1 [Compound 1] |  | 18 |

— US12448358B2, “Inhibitors of protein arginine deiminase 1 and methods of preparation and use thereof” (University of Massachusetts, priority 2019, dated 2025)
